According to patent US7491745B2, “Pyrrole-Type compounds, compositions and methods for treating cancer or viral disease” (Gemin X Pharmaceuticals Canada Inc., priority 2000, dated 2009):

Experiments:
[1] = system: Normal Human Breast Epithelial Cells; assay: In vitro cytotoxicity assay (trypan blue), normal breast cells; assay type: cell-based; details: for Cytoxicity (% Dead cells): Normal Human Breast Epithelial Cells
Protocol: (§1) Normal and cancerous human breast cells were plated at a density of ˜70,000-80,000 cells/well in 24 well plates. Each test compound was added to the cell media at the indicated concentration and incubated at 37° C. in a CO2 incubator for the indicated time. Following incubation, cells were harvested and exposed to trypan blue dye; dead cells were stained exclusively (living cells remained unstained) and counted.

[2] = system: MCF-7 Breast Cancer cells; assay: In vitro cytotoxicity assay (trypan blue), MCF-7; assay type: cell-based, human; details: for Cytoxicity (% Dead cells): MCF-7 Breast Cancer cells
Protocol: as §1

[3] = system: human cervical cancer C33A; assay: Antitumor activity in vivo, C33A tumors in SCID mice (tumor volume); set-up: species or system CB17 SCID/SCID mice
Protocol: The C33A human cervical cancer cells were maintained in RPMI (Hyclone, Utah, USA) supplemented with 10% inactivated fetal bovine serum (Bio-Whittaker, Md., USA) and 1% penicillin-streptomycin-L-Glutamine (Gibco, N.Y., USA), under 5% CO2 at 37° C., and passaged twice a week. The cells were grown at a confluency lower than 70% and than collected with Trypsin (Bio-Whittaker, Md., USA). Cells were then centrifuged and washed two time in phosphate buffer solution (PBS) and resuspended in PBS at 2×10^6 cells per 100 μl. Viability was examined by staining with trypan blue (Gibco, N.Y., USA) and only flasks with cell viability greater than 95% were used for in vivo studies.
(§2) C33A cells were injected subcutaneously into the flanks of the female CB17 SCID/SCID mice. Each mouse was inoculated with a suspension of 2×10^6 tumor cells per 100 μl on day 0. There were ten mice in each treatment group, i.e., in the control group, the positive control group and the Compound 138T group.
(§3) Treatments started on day fourteen after C33A cells transplantation. Compound 138T was administered intravenously once daily for five consecutive days at a dose of 8 mg/kg. a solution of Compound 138T was prepared fresh daily in a vehicle solution of 5% Dextrose (Abbot Laboratories, QC, Canada) and 2% Tween20 (Sigma, St. Louis, Mo., USA). The control group was treated with vehicle alone. The injection volume for both, the Compound 138T treated group and the control group was 150 μl. The positive control group was treated once every 3 days for five times with cisplatin (Sigma, St. Louis, Mo., USA) at a dose of 4 mg/kg. Cisplatin was formulated in PBS on each day of the injection and was administered intraperitoneally in an injection volume of 80 μl.
(§4) The mice were weighed and the tumors were measured on day 13 and every 2 days after the treatment commenced. Observation continued for 40 days after initial tumor implantation. The changes in body weight and in the calculated tumor volume were plotted (FIG. 2 to 4).

[4] = system: C33A cervical carcinoma cells; assay: Cell viability, cellular ATP levels (ViaLight), C33A; assay type: cell-based, human; details: 72 hours; for effect on ATP levels in C33A cancer cell line compared with HMEC and MRC-5 normal cells (FIG. 1): 0.05 μM
Text: (§5) C33A cervical carcinoma cells, Mrc-5 normal lung fibroblasts, PC-3 human prostatic carcinoma cell line, OVCAR-3 human ovarian carcinoma cal line, H460 large cell lung cancer cell line, A549 human lung carcinoma cell line, H1299 human non-small cell lung cancer cells, MCF-7 human breast cancer cell line, SW-480 human adenocarcinoma cell line, B16-F1 mouse melanoma cell line (American Type Culture Collection, Manassas, Va. USA), HMEC normal mammary epithelial cells (Clonetics San Diego, Calif., USA) and ADR-RES human breast cancer cell line (NCI, MD, USA) were cultured in the media recommended by the American Type Culture Collection. The cells lines were plated in 96-well microtiter plates (PerkinElmer Life Sciences Inc, Boston, Mass., USA) at a density that allowed them to reach confluence after 4 days of growth. One day after plating, the cells were treated with various concentrations of Compound 138T or Compound 139T. Stock solutions of the compounds were prepared in dimethyl sulfoxide (Sigma-Aldrich Inc., St. Louis, Mo., USA), diluted in media and then added to the cells. The total dimethyl sulfoxide on the cells was 1%. After 3 days of incubation the ATP levels in the cells were quantified using the luminescent ViaLight detection system (Bio-Whittaker, Md., USA). The results were plotted relative to untreated control cells, which were set at 100 (FIG. 1).

[5] = system: B16-F1 mouse melanoma cell line; assay: Cell viability, cellular ATP levels (ViaLight), B16-F1; assay type: cell-based; details: Cell line B16-F1, Murine Melanoma, 72 hours, read-out: IC50 of Compound 138T
Text: as §5

[6] = system: ADR-RES human breast cancer cell line; assay: Cell viability, cellular ATP levels (ViaLight), ADR-RES; assay type: cell-based; details: Cell line NCI/ADR-RES, Breast (Mutli-drug resistant), 72 hours, read-out: IC50 of Compound 138T
Text: as §5

[7] = system: HMEC normal mammary epithelial cells; assay: Cell viability, cellular ATP levels (ViaLight), HMEC; assay type: cell-based; details: 72 hours
Text: as §5

[8] = system: H1299 human non-small cell lung cancer cells; assay: Cell viability, cellular ATP levels (ViaLight), H1299; assay type: cell-based; details: NCI-H1299, Cell line H1299, NSCL-LC, 72 hours, read-out: IC50 of Compound 138T
Text: as §5

[9] = system: SW-480 human adenocarcinoma cell line; assay: Cell viability, cellular ATP levels (ViaLight), SW-480; assay type: cell-based; details: SW480, Cell line SW-480, Colorectal, 72 hours, read-out: IC50 of Compound 138T
Text: as §5

[10] = system: MCF-7 human breast cancer cell line; assay: Cell viability, cellular ATP levels (ViaLight), MCF-7; assay type: cell-based; details: MCF7, Cell line MCF-7, Breast, 72 hours, read-out: IC50 of Compound 138T
Text: as §5

[11] = system: OVCAR-3 human ovarian carcinoma cal line; assay: Cell viability, cellular ATP levels (ViaLight), OVCAR-3; assay type: cell-based; details: Cell line OVCAR-3, Ovary, 72 hours, read-out: IC50 of Compound 138T
Text: as §5

[12] = system: H460 large cell lung cancer cell line; assay: Cell viability, cellular ATP levels (ViaLight), H460; assay type: cell-based; details: Homo sapiens, NCI-H460, Cell line H460, NSCL-LC, 72 hours, read-out: IC50 of Compound 138T
Text: as §5

[13] = system: PC-3 human prostatic carcinoma cell line; assay: Cell viability, cellular ATP levels (ViaLight), PC-3; assay type: cell-based; details: Cell line PC-3, Prostate, 72 hours, read-out: IC50 of Compound 138T
Text: as §5

[14] = system: A549 human lung carcinoma cell line; assay: Cell viability, cellular ATP levels (ViaLight), A549; assay type: cell-based; details: Cell line A549, NSCL-aden, 72 hours, read-out: IC50 of Compound 138T
Text: as §5

[15] = Body weight and survival of C33A tumor-bearing SCID mice; assay type: in vivo, CB17 SCID/SCID mice
Protocol: as §2, §3, §4

[16] = system: Normal and cancerous human breast cells; assay: In vitro cytotoxicity assay, selective toxicity to oncogenic cells relative to normal cells; assay type: cell-based; details: trypan blue cytotoxicity assay
Protocol: as §1

[17] = system: MBA-MB231 Breast Cancer cells; assay: In vitro cytotoxicity assay (trypan blue), MBA-MB231; assay type: cell-based, human; details: for Cytoxicity (% Dead cells): MBA-MB231 Breast Cancer cells, 72 h
Protocol: as §1

[18] = 8 mg/kg intravenously once daily for five consecutive days from day fourteen

## Ethyl-meta-cyclononylprodiginine
[1]; 0.2 μM, 24 h
  Cytoxicity (% Dead cells): 10%
[1]; 1.0 μM, 24 h
  Cytoxicity (% Dead cells): 9%
[1]; 2.0 μM, 24 h
  Cytoxicity (% Dead cells): 15%
[2]; 0.2 μM, 24 h
  Cytoxicity (% Dead cells): 45%
[2]; 1.0 μM, 24 h
  Cytoxicity (% Dead cells): 62%
[2]; 2.0 μM, 24 h
  Cytoxicity (% Dead cells): 65%

## COC1=CC(c2ccc[nH]2)=NC1=Cc1[nH]c(C)cc1C [Compound 138T, 5′-(3,5-Dimethyl-1H-pyrrol-2-ylmethylene)-4′-methoxy-1H,5′H-[2,2′]bipyrrolyl]
[3]; 8 mg/kg intravenously once daily for five consecutive days
  effect on human cervical tumors implanted in SCID mice: significantly reduces the human cervical tumors implanted in SCID mice
[3]; [18]
  tumor volume curve versus control, values in standard error of the mean (FIG. 4): significantly different from control curve for a longer period of time, until day 39
  tumor volume versus control, values expressed in 95% confidence interval (FIG. 3): significantly less than control until day 29
[3]; 8 mg/kg intravenously once daily for five consecutive days, cisplatin 4 mg/kg intraperitoneally
  tumor volume curve compared with the cisplatin treated group: follows the tumor volume curve of the cisplatin treated group until day 39
[4]
  effect on ATP levels in C33A cancer cell line compared with HMEC and MRC-5 normal cells (FIG. 1): significantly more effective at lowering ATP levels in C33A cancer cell line
[4]; Homo sapiens, C-33-A, Cell line C3AA, Cervix, ATP levels, read-out: IC50 of Compound 138T
  IC50: 30 nM
[5]
  IC50: 20 nM
[6]
  IC50: 70 nM
[7]; ten cancer cell lines
  effect on ATP levels in cancer cell lines compared with normal HMEC cell line: significantly more effective at lowering ATP levels in all the cancer cell lines
[7]; Homo sapiens, Cell line HMEC, Normal Breast, ATP levels, read-out: IC50 of Compound 138T
  IC50: 2000 nM
[8]
  IC50: 70 nM
[9]
  IC50: 50 nM
[10]
  IC50: 70 nM
[11]
  IC50: 30 nM
[12]
  IC50: 60 nM
[13]
  IC50: 50 nM
[14]
  IC50: 80 nM
[15]; 8 mg/kg intravenously once daily for five consecutive days, day 22
  weight loss: 10%

## CCCCC1CCCCCCc2cc1c(/C=C1\N=C(c3ccc[nH]3)C=C1OC)[nH]2 (stereo not shown) [Butyl-meta-cycloheptylprodiginine, 2-Butyl-11-((3-methoxy-5-(1H-pyrrol-2-yl)-2H-pyrrol-2-ylidene)methyl)-10-azabicyclo[7.2.1]dodeca-9(12),11-diene]
[16]
  selective toxicity to breast cancer cells relative to normal human breast epithelial cells: selectively killed the breast cancer cells
[17]; 0.25 mM concentration (Table 10), second cancer cell value, MBA-MB231 in Table 10
  cell death in cancer cells: 64%
[17]; 0.25 μM
  Cytoxicity (% Dead cells): 64%
[17]; 1.0 μM
  Cytoxicity (% Dead cells): 100%
[17]; 2.0 μM
  Cytoxicity (% Dead cells): 100%
[1]; 0.25 mM concentration (Table 10)
  cell death in normal cells: 5%
[1]; 0.25 μM, 72 h
  Cytoxicity (% Dead cells): 5%
[1]; 1.0 μM, 72 h
  Cytoxicity (% Dead cells): 5%
[1]; 2.0 μM, 72 h
  Cytoxicity (% Dead cells): 15%
[2]; 0.25 mM concentration (Table 10), first cancer cell value, MCF-7 in Table 10
  cell death in cancer cells: 70%
[2]; 0.25 μM, 72 h
  Cytoxicity (% Dead cells): 70%
[2]; 1.0 μM, 72 h
  Cytoxicity (% Dead cells): 100%
[2]; 2.0 μM, 72 h
  Cytoxicity (% Dead cells): 100%

## N.N.[Cl][Pt][Cl] [cisplatin]
[15]; 4 mg/kg intraperitoneally once every 3 days for five times, day 29
  weight loss: 28%
[15]; 4 mg/kg intraperitoneally once every 3 days for five times, days 29 and 32, ten mice per group
  mice died in treated group: Two

## CCCCc1cc(C)c(C=C2N=C(c3ccc[nH]3)C=C2OC)[nH]1 [Compound 139T, 5′-(5-Butyl-3-methyl-1H-pyrrol-2-ylmethylene)-4′-methoxy-1H,5′H-[2,2′]bipyrrolyl]
[4]
  effect on ATP levels in C33A cancer cell line compared with HMEC and MRC-5 normal cells (FIG. 1): significantly more effective at lowering ATP levels in C33A cancer cell line
